# Test results taken from patent publication US12653191B2, “Active compound combinations” (Bayer Aktiengesellschaft, priority 2020, dated 2026).
# “And” between values parts separate entries of the source, which are not always exact repeats. Equal values may be shown once. Read-outs that look alike come from different tables or passages of the source.
# Tests used:
# Type in all cases: cell-based
# Cordana musae [1] = experiment: in vitro-Test with fungal microorganisms, Method B (tables E9-E16); settings: for Efficacy %: single substance
# Procedure, shortened: (§1)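 Efficacy scale: 0% means growth equal to the untreated control, 100% means none detected. Compounds are dried from methanol with emulsifier before adding inoculated growth medium; incubation at 20° C., 85% relative humidity for 3 to 7 days precedes photometric inhibition readout.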
# Parastagonospora nodorum = experiment: in vitro-Test with fungal microorganisms, Method B (tables H5-H8)
# Procedure, shortened: as §1
# Colletotrichum coccodes = experiment: in vitro-Test with fungal microorganisms, Method B (tables J1-J11)
# Procedure, shortened: as §1
# Botrytis cinerea [2] = experiment: in vitro-Test with fungal microorganisms, Method B (tables B15-B18)
# Procedure, shortened: as §1
# Cercospora beticola [3] = experiment: in vitro-Test with fungal microorganisms, Method B (tables C11-C20)
# Procedure, shortened: as §1
# [4] = system: Ustilago segetum var. avenae; experiment: in vitro-Test with fungal microorganisms, Method B (tables I6-I11)
# Procedure, shortened: as §1
# Diaporthe citri [5] = experiment: in vitro-Test with fungal microorganisms, Method B (tables F12-F15)
# Protocol: Example: In Vitro-Test with Fungal Microorganisms
# Wells of 96-well microtiter plates are filled with 30 μl of a preparation of test compound or compound combination in methanol+emulsifier alkylaryl-polyglycol-ether. Thereafter, the solvent is evaporated in a hood. At the next step, 200 μl of liquid growth medium is given, that has been amended with an appropriate concentration of spores or mycelium suspension of the test fungus.
# With the aid of a photometer, the extinction in all wells is measured at the wavelength of 600 nm.
# The microtiter plates are incubated for 3 to 7 days at 20° C. and 85% relative humidity. After the incubation inhibition of growth is determined photometrically. Efficacy is calculated in relation to the untreated control, 0% efficacy means fungal growth as high as in untreated control while 100% efficacy means no fungal growth is measured.
# The data in tables A1 to A12, B1 to B14, C1 to C10, D1 to D8, E1 to E8, F1 to F11, G1 to G4, H1 to H4 and I1 to I5 were collected according to Method A. The data in tables A13 to A22, B15 to B18, C11 to C20, E9 to E16, F12 to F15, G5 to G15, H5 to H8, I6 to I11 and J1 to J11 were collected according to Method B.
# Fusarium culmorum [6] = experiment: in vitro-Test with fungal microorganisms, Method B (tables G5-G15)
# Procedure, shortened: as §1
# Alternaria alternata = experiment: in vitro-Test with fungal microorganisms, Method B (tables A13-A22)
# Procedure, shortened: as §1
# Botrytis cinerea [7] = experiment: in vitro-Test with fungal microorganisms, Method A (tables B1-B14); settings: Botrytis cinerea
# Procedure, shortened: (§2)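 Methanol/emulsifier compound solution evaporated in well; liquid potato dextrose medium + spore or mycelium suspension added; 20° C, 85% RH, 3-5 d; photometric read 620 nm; % efficacy vs untreated.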
# Diaporthe citri [8] = experiment: in vitro-Test with fungal microorganisms, Method A (tables F1-F11); settings: Diaporthe citri, read-out: Efficacy
# Procedure, shortened: as §2
# [9] = system: Colletotrichum lindemuthianum; experiment: in vitro-Test with fungal microorganisms, Method A (tables D1-D8)
# Procedure, shortened: as §2
# [10] = system: Ustilago segetum var. avenae; experiment: in vitro-Test with fungal microorganisms, Method A (tables I1-I5); settings: alone, read-out: Efficacy %
# Procedure, shortened: as §2
# Cercospora beticola [11] = experiment: in vitro-Test with fungal microorganisms, Method A (tables C1-C10); settings: Cercospora beticola, read-out: Efficacy %
# Procedure, shortened: as §2
# Fusarium culmorum [12] = experiment: in vitro-Test with fungal microorganisms, Method A (tables G1-G4); settings: alone
# Procedure, shortened: as §2
# Cordana musae [13] = experiment: in vitro-Test with fungal microorganisms, Method A (tables E1-E8); settings: Neocordana musae, single substance, read-out: Efficacy %
# Procedure, shortened: as §2
compound,measurement,setting,value
"Cc1cccc(-n2nnn(C)c2=O)c1COc1ccn(-c2ccc(Cl)cc2)n1 [(3.030) metyltetraprole, metyltetraprole]",Efficacy,"Cordana musae [1]; single active, 0.008 ppm",0%
same,Efficacy,"Cordana musae [1]; single active, 0.04 ppm",0%
same,Efficacy,"Cordana musae [1]; single active, 0.2 ppm",19%
same,Efficacy,"Cordana musae [1]; single active, 1 ppm",70%
same,Efficacy,Parastagonospora nodorum; 0.04 ppm,38%
same,Efficacy,Parastagonospora nodorum; 1 ppm,84%
same,Efficacy %,Colletotrichum coccodes; single active compound at 0.04 ppm,0%
same,Efficacy %,Colletotrichum coccodes; single active compound at 0.2 ppm,1%
same,Efficacy %,Botrytis cinerea [2]; 0.008 ppm alone,7%
same,Efficacy %,Botrytis cinerea [2]; 0.04 ppm alone,11%
same,Efficacy %,Botrytis cinerea [2]; 0.2 ppm alone,7%
same,Efficacy %,Botrytis cinerea [2]; 1 ppm alone,33%
same,Efficacy %,"Cercospora beticola [3]; single compound, 0.04 ppm",100%
same,Efficacy %,"Cercospora beticola [3]; single compound, 0.2 ppm",100%
same,Efficacy %,[4]; 0.2 ppm,0%
same,Efficacy,"Diaporthe citri [5]; Table F14, 0.2 ppm alone",86%
same,Efficacy,Fusarium culmorum [6]; 0.2 ppm alone,13%
same,Efficacy,"Fusarium culmorum [6]; single active compound, 0.008 ppm",7% and 0%
same,Efficacy,"Fusarium culmorum [6]; single active compound, 0.04 ppm",8% and 0%
same,Efficacy,"Fusarium culmorum [6]; single active compound, 0.2 ppm",6% and 5%
same,Efficacy,"Fusarium culmorum [6]; single active compound, 1 ppm",8% and 2%
same,Efficacy,Alternaria alternata; 0.008 ppm,0%
same,Efficacy,Alternaria alternata; 1 ppm,87%
"N#Cc1sc2c(=O)c3ccccc3c(=O)c=2sc1C#N [(5.010) dithianon, dithianon]",inhibition of growth at 2 ppm,"Cordana musae [1]; Neocordana musae, single active, 2 ppm, read-out: Efficacy",95%
same,Efficacy %,Cordana musae [1]; 0.08 ppm,0%
same,Efficacy %,Cordana musae [1]; 10 ppm,100%
same,inhibition of growth at 0.08 ppm,"Parastagonospora nodorum; Parastagonospora nodorum, 0.08 ppm, read-out: Efficacy",12%
same,inhibition of growth at 0.4 ppm,"Parastagonospora nodorum; Parastagonospora nodorum, 0.4 ppm, read-out: Efficacy",5%
same,inhibition of growth at 2 ppm,"Parastagonospora nodorum; Parastagonospora nodorum, 2 ppm, read-out: Efficacy",96%
same,inhibition of growth at 0.8 ppm,Botrytis cinerea [7]; read-out: Efficacy,0%
same,inhibition of growth at 4 ppm,"Botrytis cinerea [7]; 4.0 ppm, read-out: Efficacy",23%
same,inhibition of growth at 20 ppm,Botrytis cinerea [7]; read-out: Efficacy,100%
same,inhibition of growth at 0.8 ppm,"Botrytis cinerea [7]; alone, read-out: Efficacy %",0%
same,inhibition of growth at 20 ppm,"Botrytis cinerea [7]; alone, read-out: Efficacy %",99%
same,inhibition of growth at 0.08 ppm,"Colletotrichum coccodes; Colletotrichum coccodes, single active compound at 0.08 ppm, read-out: Efficacy %",0%
same,inhibition of growth at 0.4 ppm,"Colletotrichum coccodes; Colletotrichum coccodes, single active compound at 0.4 ppm, read-out: Efficacy %",11%
same,inhibition of growth at 10 ppm,"Colletotrichum coccodes; Colletotrichum coccodes, single active compound at 10 ppm, read-out: Efficacy %",100%
same,inhibition of growth at 0.8 ppm,"Diaporthe citri [8]; Table F10, 0.8 ppm alone",9%
same,inhibition of growth at 4 ppm,"Diaporthe citri [8]; Table F10, 4.0 ppm alone",99%
same,inhibition of growth at 20 ppm,"Diaporthe citri [8]; Table F10, 20.0 ppm alone",98%
same,inhibition of growth at 0.8 ppm,"Diaporthe citri [8]; applied alone, 0.8 ppm",17%
same,inhibition of growth at 20 ppm,"Diaporthe citri [8]; applied alone, 20.0 ppm",98%
same,inhibition of growth at 0.8 ppm,"[9]; Colletotrichum lindemuthianum, single active at 0.8 ppm, read-out: Efficacy %",0%
same,inhibition of growth at 4 ppm,"[9]; Colletotrichum lindemuthianum, single active at 4.0 ppm, read-out: Efficacy %",100%
same,inhibition of growth at 20 ppm,"[9]; Colletotrichum lindemuthianum, single active at 20.0 ppm, read-out: Efficacy %",100%
same,Efficacy %,[9]; single active at 0.8 ppm,0%
same,inhibition of growth at 0.08 ppm,"Cercospora beticola [3]; Cercospora beticola, 0.08 ppm, read-out: Efficacy %",0%
same,inhibition of growth at 0.4 ppm,"Cercospora beticola [3]; Cercospora beticola, 0.4 ppm, read-out: Efficacy %",3%
same,inhibition of growth at 2 ppm,"Cercospora beticola [3]; Cercospora beticola, 2 ppm, read-out: Efficacy %",100%
same,inhibition of growth at 0.08 ppm,"[4]; 0.08 ppm, read-out: Efficacy %",2%
same,inhibition of growth at 0.4 ppm,"[4]; 0.4 ppm, read-out: Efficacy %",0%
same,inhibition of growth at 2 ppm,"[4]; 2 ppm, read-out: Efficacy %",29%
same,inhibition of growth at 0.8 ppm,[10]; 0.8 ppm,12%
same,inhibition of growth at 4 ppm,[10]; 4.0 ppm,100%
same,inhibition of growth at 20 ppm,[10]; 20.0 ppm,99%
same,Efficacy,"Diaporthe citri [5]; Table F13, 0.4 ppm alone",13%
same,inhibition of growth at 0.08 ppm,"Fusarium culmorum [6]; Fusarium culmorum, single active compound, 0.08 ppm, read-out: Efficacy",4%
same,inhibition of growth at 0.8 ppm,Cercospora beticola [11]; 0.8 ppm,0%
same,inhibition of growth at 4 ppm,Cercospora beticola [11]; 4.0 ppm alone,100%
same,inhibition of growth at 4 ppm,Cercospora beticola [11]; 4.0 ppm,100%
same,inhibition of growth at 20 ppm,Cercospora beticola [11]; 20.0 ppm alone,99%
same,inhibition of growth at 20 ppm,Cercospora beticola [11]; 20.0 ppm,99%
same,Efficacy,Fusarium culmorum [12]; 20.0 ppm,100%
same,inhibition of growth at 4 ppm,"Fusarium culmorum [12]; Fusarium culmorum, 4.0 ppm, read-out: Efficacy",0%
same,inhibition of growth at 0.8 ppm,Cordana musae [13]; 0.8 ppm,0%
same,inhibition of growth at 4 ppm,Cordana musae [13]; 4.0 ppm,100%
same,inhibition of growth at 0.4 ppm,"Alternaria alternata; Alternaria alternata, single compound, 0.4 ppm, read-out: Efficacy",0%
same,inhibition of growth at 2 ppm,"Alternaria alternata; Alternaria alternata, single compound, 2 ppm, read-out: Efficacy",32%
"COCC(=O)N(c1c(C)cccc1C)[C@H](C)C(=O)OC [(12.004) metalaxyl-M, metalaxyl-M (mefenoxam)]",Efficacy,"Cordana musae [1]; single active, 0.8 ppm",0%
same,Efficacy,"Cordana musae [1]; single active, 4 ppm",0% and 9%
same,Efficacy,"Cordana musae [1]; single active, 20 ppm",0% and 8%
same,Efficacy,Parastagonospora nodorum; 0.8 ppm,12%
same,Efficacy,Parastagonospora nodorum; 4 ppm,8%
same,Efficacy,Parastagonospora nodorum; 20 ppm,3%
same,Efficacy %,"Botrytis cinerea [2]; 0.8 ppm, alone",5%
same,Efficacy %,Botrytis cinerea [2]; 4 ppm alone,3%
same,Efficacy %,Botrytis cinerea [2]; 20 ppm alone,4%
same,Efficacy %,Botrytis cinerea [2]; 100 ppm alone,13%
same,Efficacy %,Cercospora beticola [3]; 4 ppm,10%
same,Efficacy %,Cercospora beticola [3]; 20 ppm,0%
same,Efficacy %,"Cercospora beticola [3]; single compound, 20 ppm",0%
same,Efficacy %,"[4]; 0.8 ppm, listed as (12.004) metalaxyl-m",11%
same,Efficacy %,[4]; 4 ppm,8%
same,Efficacy %,[4]; 20 ppm,12%
same,Efficacy,"Diaporthe citri [5]; Table F14, 0.8 ppm alone",0%
same,Efficacy,"Diaporthe citri [5]; Table F14, 4 ppm alone",0%
same,Efficacy,"Diaporthe citri [5]; Table F14, 20 ppm alone",0%
same,Efficacy,"Fusarium culmorum [6]; 0.8 ppm, alone",0%
same,Efficacy,Fusarium culmorum [6]; 4 ppm alone,0%
same,Efficacy,"Fusarium culmorum [6]; single active compound, 100 ppm",22% and 23%
same,Efficacy,Alternaria alternata; 4 ppm,10%
